Measured values as given in patent US8962674B2 (Tokyo Institute of Technology, priority 2006, dated 2015).

| SMILES | melting point [°C] |
| --- | --- |
| COc1ccc(/C=C/C(=O)CC(=O)/C=C/c2cccc(OC)c2OC)cc1O [CU071, (1E,6E)-1-(2,3-dimethoxyphenyl)-7-(3-hydroxy-4-methoxyphenyl)hepta-1,6-diene-3,5-dione] | 144 to 148 |
| COc1ccc(/C=C/C(=O)CC(=O)/C=C/c2ccc(O)cc2)c(OC)c1 [CU072, (1E,6E)-1-(2,4-dimethoxyphenyl)-7-(4-hydroxyphenyl)hepta-1,6-diene-3,5-dione] | 161 to 167 |
| COc1ccc(/C=C/C(=O)CC(=O)/C=C/c2ccc(O)c(OC)c2)c(OC)c1 [CU073, (1E,6E)-1-(2,4-dimethoxyphenyl)-7-(4-hydroxy-3-methoxyphenyl)hepta-1,6-diene-3,5-dione] | 108 to 113 |
| COc1ccc(/C=C/C(=O)CC(=O)/C=C/c2ccc(OC)c(O)c2)c(OC)c1 [CU074, (1E,6E)-1-(2,4-dimethoxyphenyl)-7-(3-hydroxy-4-methoxyphenyl)hepta-1,6-diene-3,5-dione] | 64 to 70 |
| COc1ccc(OC)c(/C=C/C(=O)CC(=O)/C=C/c2ccc(O)cc2)c1 [CU075, (1E,6E)-1-(2,5-dimethoxyphenyl)-7-(4-hydroxyphenyl)hepta-1,6-diene-3,5-dione] | 70 to 74 |
| COc1ccc(OC)c(/C=C/C(=O)CC(=O)/C=C/c2ccc(O)c(OC)c2)c1 [CU076, (1E,6E)-1-(2,5-dimethoxyphenyl)-7-(4-hydroxy-3-methoxyphenyl)hepta-1,6-diene-3,5-dione] | 127 to 129 |
| COc1ccc(OC)c(/C=C/C(=O)CC(=O)/C=C/c2ccc(OC)c(O)c2)c1 [CU077, (1E,6E)-1-(2,5-dimethoxyphenyl)-7-(3-hydroxy-4-methoxyphenyl)hepta-1,6-diene-3,5-dione] | 63 to 68 |
| COc1ccc(/C=C/C(=O)CC(=O)/C=C/c2cccc(O)c2)cc1O [CU081, (1E,6E)-1-(3-hydroxy-4-methoxyphenyl)-7-(3-hydroxyphenyl)hepta-1,6-diene-3,5-dione] | 200 to 206 |
| COc1cc(O)ccc1/C=C/C(=O)CC(=O)/C=C/c1ccc(O)cc1 [CU083, (1E,6E)-1-(4-hydroxyphenyl)-7-(4-hydroxy-2-methoxyphenyl)hepta-1,6-diene-3,5-dione] | 105 to 110 |
| COc1cc(/C=C/C(=O)CC(=O)/C=C/c2ccc(O)cc2)cc(OC)c1 [CU099, (1E,6E)-1-(3,5-dimethoxyphenyl)-7-(4-hydroxyphenyl)hepta-1,6-diene-3,5-dione] | 75 to 80 |
| COc1cc(/C=C/C(=O)CC(=O)/C=C/c2ccc(O)c(OC)c2)cc(OC)c1 [CU100, (1E,6E)-1-(3,5-dimethoxyphenyl)-7-(4-hydroxy-3-methoxyphenyl)hepta-1,6-diene-3,5-dione] | 50 to 55 |
| COc1cc(/C=C/C(=O)CC(=O)/C=C/c2ccc(OC)c(O)c2)cc(OC)c1 [CU101, (1E,6E)-1-(3,5-dimethoxyphenyl)-7-(3-hydroxy-4-methoxyphenyl)hepta-1,6-diene-3,5-dione] | 187 to 193 |
| COc1cccc(OC)c1/C=C/C(=O)CC(=O)/C=C/c1ccc(O)cc1 [CU102, (1E,6E)-1-(2,6-dimethoxyphenyl)-7-(4-hydroxyphenyl)hepta-1,6-diene-3,5-dione] | 165 to 170 |
| COc1cc(/C=C/C(=O)CC(=O)/C=C/c2c(OC)cccc2OC)ccc1O [CU103, (1E,6E)-1-(2,6-dimethoxyphenyl)-7-(4-hydroxy-3-methoxyphenyl)hepta-1,6-diene-3,5-dione] | 136 to 139 |
| CCn1c2ccccc2c2cc(/C=C/C(=O)CC(=O)/C=C/c3ccc(OC)c(O)c3)ccc21 [CU108, (1E,6E)-1-(9-ethyl-9H-carbazol-3-yl)-7-(3-hydroxy-4-methoxyphenyl)hepta-1,6-diene-3,5-dione] | 100 to 103 |
| COc1ccc(/C=C/C(=O)CC(=O)/C=C/c2c(OC)ccc3ccccc23)cc1O [CU117, (1E,6E)-1-(3-hydroxy-4-methoxyphenyl)-7-(2-methoxynaphthalen-1-yl)hepta-1,6-diene-3,5-dione] | 150 to 155 |
| COc1cc(/C=C/C(=O)CC(=O)/C=C/c2ccc(OC)c3ccccc23)ccc1O [CU118, (1E,6E)-1-(4-hydroxy-3-methoxyphenyl)-7-(4-methoxynaphthalen-1-yl)hepta-1,6-diene-3,5-dione] | 193 to 196 |
| CN(C)c1ccc(/C=C/C(=O)CC(=O)/C=C/c2ccc(O)cc2)c2ccccc12 [CU119, (1E,6E)-1-(4-dimethylaminonaphthalen-1-yl)-7-(4-hydroxyphenyl)hepta-1,6-diene-3,5-dione] | 82 to 86 |
| Cn1cccc1/C=C/C(=O)CC(=O)/C=C/c1ccc(O)cc1 [CU120, (1E,6E)-1-(4-hydroxyphenyl)-7-(1-methyl-1H-pyrrol-2-yl)hepta-1,6-diene-3,5-dione] | 169 to 173 |
| Cn1cc(/C=C/C(=O)CC(=O)/C=C/c2ccc(O)cc2)c2ccccc21 [CU123, (1E,6E)-1-(4-hydroxyphenyl)-7-(1-methyl-1H-indol-3-yl)hepta-1,6-diene-3,5-dione] | 185 to 190 |
| COc1cc(/C=C/C(=O)CC(=O)/C=C/c2cn(C)c3ccccc23)ccc1O [CU124, (1E,6E)-1-(4-hydroxy-3-methoxyphenyl)-7-(1-methyl-1H-indol-3-yl)hepta-1,6-diene-3,5-dione] | 173 to 175 |
| COc1ccc(/C=C/C(=O)CC(=O)/C=C/c2cn(C)c3ccccc23)cc1O [CU125, (1E,6E)-1-(3-hydroxy-4-methoxyphenyl)-7-(1-methyl-1H-indol-3-yl)hepta-1,6-diene-3,5-dione] | 162 to 166 |
| Cn1c(/C=C/C(=O)CC(=O)/C=C/c2ccc(O)cc2)cc2ccccc21 [CU126, (1E,6E)-1-(4-hydroxyphenyl)-7-(1-methyl-1H-indol-2-yl)hepta-1,6-diene-3,5-dione] | 208 to 213 |
| O=C(/C=C/c1ccc(O)cc1)CC(=O)/C=C/c1ccc(O)cc1Cl [CU127, (1E,6E)-1-(2-chloro-4-hydroxyphenyl)-7-(4-hydroxyphenyl)hepta-1,6-diene-3,5-dione] | 131 to 138 |
| COc1ccc(/C=C/C(=O)CC(=O)/C=C/c2cc3ccccc3n2C)cc1O [CU128, (1E,6E)-1-(3-hydroxy-4-methoxyphenyl)-7-(1-methyl-1H-indol-2-yl)hepta-1,6-diene-3,5-dione] | 185 to 193 |

Now from value to compound:

| melting point [°C] | SMILES |
| --- | --- |
| 74 to 80 | COc1cc(/C=C/C(=O)CC(=O)/C=C/c2cccc(O)c2)ccc1O [CU079, (1E,6E)-1-(4-hydroxy-3-methoxyphenyl)-7-(3-hydroxyphenyl)hepta-1,6-diene-3,5-dione] |
| 77 to 83 | COc1cc(/C=C/C(=O)CC(=O)/C=C/c2ccccc2O)ccc1O [CU082, (1E,6E)-1-(4-hydroxy-3-methoxyphenyl)-7-(2-hydroxyphenyl)hepta-1,6-diene-3,5-dione] |
| 90 to 96 | COc1ccc(/C=C/C(=O)CC(=O)/C=C/c2ccccc2O)cc1O [CU084, (1E,6E)-1-(2-hydroxyphenyl)-7-(3-hydroxy-4-methoxyphenyl)hepta-1,6-diene-3,5-dione] |
| 203 to 208 | COc1cc(/C=C/C(=O)CC(=O)/C=C/c2ccc(O)cc2OC)ccc1O [CU085, (1E,6E)-1-(4-hydroxy-2-methoxyphenyl)-7-(4-hydroxy-3-methoxyphenyl)hepta-1,6-diene-3,5-dione] |
| 90 to 95 | COc1ccc(/C=C/C(=O)CC(=O)/C=C/c2ccc(O)cc2OC)cc1O [CU086, (1E,6E)-1-(4-hydroxy-2-methoxyphenyl)-7-(3-hydroxy-4-methoxyphenyl)hepta-1,6-diene-3,5-dione] |
| 78 to 80 | COc1ccc(O)c(/C=C/C(=O)CC(=O)/C=C/c2ccc(O)c(OC)c2)c1 [CU088, (1E,6E)-1-(2-hydroxy-5-methoxyphenyl)-7-(4-hydroxy-3-methoxyphenyl)hepta-1,6-diene-3,5-dione] |
| 80 to 86 | COc1ccc(O)c(/C=C/C(=O)CC(=O)/C=C/c2ccc(OC)c(O)c2)c1 [CU089, (1E,6E)-1-(2-hydroxy-5-methoxyphenyl)-7-(3-hydroxy-4-methoxyphenyl)hepta-1,6-diene-3,5-dione] |
| 133 to 140 | O=C(/C=C/c1ccc(O)cc1)CC(=O)/C=C/c1cc(O)ccc1O [CU090, (1E,6E)-1-(2,5-dihydroxyphenyl)-7-(4-hydroxyphenyl)hepta-1,6-diene-3,5-dione] |
| 115 to 121 | COc1ccc(/C=C/C(=O)CC(=O)/C=C/c2cc(O)ccc2O)cc1O [CU091, (1E,6E)-1-(2,5-dihydroxyphenyl)-7-(3-hydroxy-4-methoxyphenyl)hepta-1,6-diene-3,5-dione] |
| 85 to 90 | COc1cc(/C=C/C(=O)CC(=O)/C=C/c2cc(O)cc(O)c2)ccc1O [CU093, (1E,6E)-1-(3,5-dihydroxyphenyl)-7-(4-hydroxy-3-methoxyphenyl)hepta-1,6-diene-3,5-dione] |
| 82 to 89 | COc1cc(/C=C/C(=O)CC(=O)/C=C/c2cccc(O)c2O)ccc1O [CU096, (1E,6E)-1-(2,3-dihydroxyphenyl)-7-(4-hydroxy-3-methoxyphenyl)hepta-1,6-diene-3,5-dione] |
| 78 to 85 | COc1ccc(/C=C/C(=O)CC(=O)/C=C/c2ccc(O)c(OC)c2)cc1O [CU105, (1E,6E)-1-(3-hydroxy-4-methoxyphenyl)-7-(4-hydroxy-3-methoxyphenyl)hepta-1,6-diene-3,5-dione] |
| 125 to 130 | COc1cc(/C=C/C(=O)CC(=O)/C=C/c2cc(O)ccc2O)ccc1O [CU106, (1E,6E)-1-(2,5-dihydroxyphenyl)-7-(4-hydroxy-3-methoxyphenyl)hepta-1,6-diene-3,5-dione] |
| 185 to 192 | COc1cc(/C=C/C(=O)CC(=O)/C=C/c2ccc(O)cc2Cl)ccc1O [CU129, (1E,6E)-1-(2-chloro-4-hydroxyphenyl)-7-(4-hydroxy-3-methoxyphenyl)hepta-1,6-diene-3,5-dione] |
| 120 to 130 | COc1ccc(/C=C/C(=O)CC(=O)/C=C/c2ccc(O)cc2Cl)cc1O [CU130, (1E,6E)-1-(2-chloro-4-hydroxyphenyl)-7-(3-hydroxy-4-methoxyphenyl)hepta-1,6-diene-3,5-dione] |
